Source: patent US8217000B2, “Method for elevating prolactin in mammals” (Cara Therapeutics, Inc., priority 2006, dated 2012)
Where a name gives a salt, the structure may show the parent alone. Read-outs that look alike come from different tables or passages of the source. Non-standard residues stand in square brackets, D forms with d. Residues, ends and D or L forms follow the SMILES beside them. *: point of attachment. NH(4-picolyl) = c1cc(CN*)ccn1; dNle = CCCC[C@@H](N)C(=O)O

Experiment: Urinary excretion of CR665 after single IV infusion in human subjects
Format: in vivo
Settings: for CL renal / dose excreted: human; for CL renal: urine and plasma, read-out: CLR 0-24 h; for dose excreted / Ae0-24 h: urine; for dose excreted: iv
Procedure: The lower limit of quantification was 1 ng/mL.
Urine was collected into standard weight polyethylene containers over the following time intervals: Pre dose (−24 to 0), 0 to 4, 4 to 8, 8 to 12, 12 to 24 and 24 to 48 hours after the start of the infusion. During each collection period, the containers were stored in a refrigerator at 2 to 8° C. The weight (g) of each collection was recorded prior to removal of two sub samples (each approximately 4 mL) into suitably labeled polypropylene containers, which were stored within 2 hours of collection, at approximately −20° C. Additional aliquots (1×100 mL per collection period) were stored for possible future analyses. Any remaining urine from post dose collection intervals was pooled with the rest of the urine collected during the 0 to 24 hour collection period, for analysis of creatinine clearance. A nominal value for specific gravity of 1.018 was used to calculate urine volume.

SMILES: CCCC[C@@H](NC(=O)[C@@H](Cc1ccccc1)NC(=O)[C@H](N)Cc1ccccc1)C(=O)N[C@H](CCCNC(=N)N)C(=O)NCc1ccncc1 [CR665, D-phenylalanyl-D-phenylalanyl-D-norleucyl-N-(4-pyridinylmethyl)-D-argininamide, acetate salt] (H-[dF][dF][dNle][dR]-{NH(4-picolyl)})
- CL renal (female, females, 0.06 mg/kg, 5-minute IV infusion, geometric mean): 20.9 mL/min
- CL renal (female, females, 0.24 mg/kg, 1 hour IV infusion, geometric mean): 16.8 mL/min
- dose excreted (female, 0.06 mg/kg, females, 0.06 mg/kg, 5-minute IV infusion, geometric mean, read-out: fe0-24 h): 3.83%
- dose excreted (female, 0.06 mg/kg, females, 5-minute infusion, read-out: Fraction of unchanged drug excreted in the urine): 3.8%
- dose excreted (female, 0.06 mg/kg, females, 5-minute infusion, read-out: fe0-24 h, geometric least squares mean): 3.83%
- dose excreted (female, 0.24 mg/kg, females, 0.24 mg/kg, 1 hour IV infusion, geometric mean, read-out: fe0-24 h): 3.02%
- dose excreted (female, 0.24 mg/kg, females, 1-hour infusion, read-out: fe0-24 h, geometric least squares mean): 2.7%
- fe0-24 h, ratio of geometric least squares means 5-minute:1-hour (females): 1.42
- Ae0-24 h (females, 0.06 mg/kg, 5-minute IV infusion, geometric mean): 153 µg
- Ae0-24 h (females, 0.24 mg/kg, 1 hour IV infusion, geometric mean): 446 µg
- CL renal (male, males, 0.03 mg/kg, 5-minute IV infusion, geometric mean): 17.1 mL/min
- CL renal (male, males, 0.06 mg/kg, 5-minute IV infusion, geometric mean): 18.4 mL/min
- CL renal (male, males, 0.09 mg/kg, 5-minute IV infusion, geometric mean): 20.5 mL/min
- CL renal (male, males, 0.24 mg/kg, 1 hour IV infusion, geometric mean): 22 mL/min
- dose excreted (male, 0.03 mg/kg, males, 0.03 mg/kg, 5-minute IV infusion, geometric mean, read-out: fe0-24 h): 3.6%
- dose excreted (male, 0.06 mg/kg, males, 0.06 mg/kg, 5-minute IV infusion, geometric mean, read-out: fe0-24 h): 3.33%
- dose excreted (male, 0.09 mg/kg, males, 0.09 mg/kg, 5-minute IV infusion, geometric mean, read-out: fe0-24 h): 3.56%
- dose excreted (male, 0.24 mg/kg, males, 0.24 mg/kg, 1 hour IV infusion, geometric mean, read-out: fe0-24 h): 3.5%
- dose excreted (male, males, 1-hour infusion, Parts A & B, read-out: fe0-24 h, geometric least squares mean): 3.46%
- dose excreted (male, males, 5-minute infusion, Parts A & B, read-out: fe0-24 h, geometric least squares mean): 3.48%
- dose excreted (male, males, all dose levels, 5-minute infusion, up to 24 hours post-dose, read-out: Fraction of the dose excreted in the urine as unchanged drug): ~3.5%
- fe0-24 h, ratio of geometric least squares means 5-minute:1-hour (males): 1.01
- Ae0-24 h (males, 0.03 mg/kg, 5-minute IV infusion, geometric mean): 70.0 µg
- Ae0-24 h (males, 0.06 mg/kg, 5-minute IV infusion, geometric mean): 157 µg
- Ae0-24 h (males, 0.09 mg/kg, 5-minute IV infusion, geometric mean): 262 µg
- Ae0-24 h (males, 0.24 mg/kg, 1 hour IV infusion, geometric mean): 631 µg
